From PubChem BioAssay (NCI)
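Values below derive from 48-hour exposures of cells grown in 96-well plates, with endpoints linearly interpolated between the two concentrations bracketing the appropriate inhibition level. The concentration for 50% growth inhibition is given as GI50. Definition used: TGI = concentration required for complete inhibition of growth.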

Assays:
Assay in all cases: growth of human tumour cells (NCI), 48 h
NCI-H23 lung = test system: NCI-H23 lung
NCI-H460 lung = test system: NCI-H460 lung
NCI-H522 lung = test system: NCI-H522 lung
NCI/ADR-RES ovarian = test system: NCI/ADR-RES ovarian
OVCAR-3 ovarian = test system: OVCAR-3 ovarian
OVCAR-4 ovarian = test system: OVCAR-4 ovarian
OVCAR-5 ovarian = test system: OVCAR-5 ovarian
OVCAR-8 ovarian = test system: OVCAR-8 ovarian
PC-3 prostate = test system: PC-3 prostate
RPMI-8226 leukemia = test system: RPMI-8226 leukemia
RXF 393 renal = test system: RXF 393 renal
SF-268 CNS = test system: SF-268 CNS
SF-295 CNS = test system: SF-295 CNS
SF-539 CNS = test system: SF-539 CNS
SK-MEL-2 melanoma = test system: SK-MEL-2 melanoma
SK-MEL-28 melanoma = test system: SK-MEL-28 melanoma
SK-MEL-5 melanoma = test system: SK-MEL-5 melanoma
SK-OV-3 ovarian = test system: SK-OV-3 ovarian
SN12C renal = test system: SN12C renal
SNB-19 CNS = test system: SNB-19 CNS
SNB-75 CNS = test system: SNB-75 CNS
SR leukemia = test system: SR leukemia
SW-620 colon = test system: SW-620 colon
T-47D breast = test system: T-47D breast
TK-10 renal = test system: TK-10 renal
U251 CNS = test system: U251 CNS
UACC-257 melanoma = test system: UACC-257 melanoma
UACC-62 melanoma = test system: UACC-62 melanoma
UO-31 renal = test system: UO-31 renal

Structure (SMILES): N/C(=N\c1nc2ccccc2s1)NC(=O)Nc1ccc(Cl)cc1Cl
- GI50 (NCI-H23 lung): 835 nM
- TGI (NCI-H23 lung): 2440 nM
- GI50 (NCI-H460 lung): 419 nM
- TGI (NCI-H460 lung): 1510 nM
- GI50 (NCI-H522 lung): 194 nM
- TGI (NCI-H522 lung): 787 nM
- GI50 (NCI/ADR-RES ovarian): 269 nM
- TGI (NCI/ADR-RES ovarian): 937 nM
- GI50 (OVCAR-3 ovarian): 359 nM
- TGI (OVCAR-3 ovarian): 1340 nM
- GI50 (OVCAR-4 ovarian): 1530 nM
- TGI (OVCAR-4 ovarian): 5070 nM
- GI50 (OVCAR-5 ovarian): 948 nM
- TGI (OVCAR-5 ovarian): 3090 nM
- GI50 (OVCAR-8 ovarian): 766 nM
- TGI (OVCAR-8 ovarian): 4610 nM
- GI50 (PC-3 prostate): 753 nM
- TGI (PC-3 prostate): 3890 nM
- GI50 (RPMI-8226 leukemia): 1120 nM
- TGI (RPMI-8226 leukemia): 8960 nM
- GI50 (RXF 393 renal): 357 nM
- TGI (RXF 393 renal): 1690 nM
- GI50 (SF-268 CNS): 1160 nM
- TGI (SF-268 CNS): 23000 nM
- GI50 (SF-295 CNS): 334 nM
- TGI (SF-295 CNS): 1310 nM
- GI50 (SF-539 CNS): 261 nM
- TGI (SF-539 CNS): 842 nM
- GI50 (SK-MEL-2 melanoma): 351 nM
- TGI (SK-MEL-2 melanoma): 1170 nM
- GI50 (SK-MEL-28 melanoma): 1040 nM
- TGI (SK-MEL-28 melanoma): 5670 nM
- GI50 (SK-MEL-5 melanoma): 352 nM
- TGI (SK-MEL-5 melanoma): 1710 nM
- GI50 (SK-OV-3 ovarian): 434 nM
- TGI (SK-OV-3 ovarian): 2210 nM
- GI50 (SN12C renal): 566 nM
- TGI (SN12C renal): 2210 nM
- GI50 (SNB-19 CNS): 672 nM
- TGI (SNB-19 CNS): 5540 nM
- GI50 (SNB-75 CNS): 230 nM
- TGI (SNB-75 CNS): 997 nM
- GI50 (SR leukemia): 952 nM
- GI50 (SW-620 colon): 455 nM
- TGI (SW-620 colon): 2460 nM
- GI50 (T-47D breast): 421 nM
- TGI (T-47D breast): 6420 nM
- GI50 (TK-10 renal): 1910 nM
- TGI (TK-10 renal): 4280 nM
- GI50 (U251 CNS): 458 nM
- TGI (U251 CNS): 1750 nM
- GI50 (UACC-257 melanoma): 2070 nM
- TGI (UACC-257 melanoma): 17700 nM
- GI50 (UACC-62 melanoma): 374 nM
- TGI (UACC-62 melanoma): 3200 nM
- GI50 (UO-31 renal): 503 nM
- TGI (UO-31 renal): 1960 nM
